Results taken from the supplement of paper PMC10307832.

Legend:
Test in all cases: relative viability (nuclei count vs DMSO), 5 days (fraction); higher = more cells survive
[1] = compound: CCn1c(-c2nonc2N)nc2c(C#CC(C)(C)O)ncc(OC[C@H]3CCCNC3)c21 + O=C(c1cc(Cc2n[nH]c(=O)c3ccccc23)ccc1F)N1CCN(C(=O)C2CC2)CC1 [Olaparib] (partner 8 µM)
Summary of the method: (§1)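 Relative viability is defined as nuclei in treated wells over nuclei in vehicle wells. Duplicate plates were run and medians reported. Lung cancer cell lines in 1536-well plates were dosed by pin tool one day after seeding, with one drug or with a fixed anchor-drug dose plus five library-drug doses (not always all listed) in √10 steps, and nuclei were counted after 5 days.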

[2] = compound: CCn1c(-c2nonc2N)nc2c(C#CC(C)(C)O)ncc(OC[C@H]3CCCNC3)c21 + C[C@@H](Oc1cc(-c2cnn(C3CCNCC3)c2)cnc1N)c1c(Cl)ccc(F)c1Cl [Crizotinib] (partner 1 µM)
Summary of the method: as §1

[3] = compound: CCn1c(-c2nonc2N)nc2c(C#CC(C)(C)O)ncc(OC[C@H]3CCCNC3)c21 + Nc1nc2[nH]cc(CCc3ccc(C(=O)N[C@@H](CCC(=O)O)C(=O)O)cc3)c2c(=O)[nH]1 [Pemetrexed] (partner 0.2 µM)
Summary of the method: as §1

BAM7 + Linsitinib = compound: CCOC1=CC=CC=C1N=NC2=C(NN(C2=O)C3=NC(=CS3)C4=CC=CC=C4)C [BAM7] + C[C@]1(O)C[C@@H](c2nc(-c3ccc4ccc(-c5ccccc5)nc4c3)c3c(N)nccn32)C1 [Linsitinib] (partner 1 µM)
Summary of the method: as §1

| Cell Line | relative viability ([1]; first compound 0.01 µM) | relative viability ([1]; first compound 0.03162 µM) | relative viability ([1]; first compound 0.1 µM) | relative viability ([1]; first compound 0.3162 µM) | relative viability ([1]; first compound 1 µM) | relative viability ([2]; first compound 0.01 µM) | relative viability ([2]; first compound 0.03162 µM) | relative viability ([2]; first compound 0.1 µM) | relative viability ([2]; first compound 0.3162 µM) | relative viability ([2]; first compound 1 µM) | relative viability ([3]; first compound 0.01 µM) | relative viability ([3]; first compound 0.03162 µM) | relative viability ([3]; first compound 0.1 µM) | relative viability ([3]; first compound 0.3162 µM) | relative viability ([3]; first compound 1 µM) | relative viability (BAM7 + Linsitinib; first compound 0.5 µM) | relative viability (BAM7 + Linsitinib; first compound 5 µM) | relative viability (BAM7 + Linsitinib; first compound 15.81 µM) | relative viability (BAM7 + Linsitinib; first compound 50 µM) |
| --- | --- | --- | --- | --- | --- | --- | --- | --- | --- | --- | --- | --- | --- | --- | --- | --- | --- | --- | --- |
| SK-MES-1 | 0.658 | 0.72 | 0.678 | 0.649 | 0.702 | 0.989 | 0.982 | 0.963 | 0.909 | 0.982 | 0.971 | 0.945 | 0.947 | 0.909 | 0.983 | 1.11 | 1.05 | 1.03 | 1.07 |
| NCI-H1437 | 0.633 | 0.648 | 0.64 | 0.605 | 0.625 | 0.911 | 0.821 | 0.899 | 0.936 | 0.927 | 0.338 | 0.324 | 0.318 | 0.353 | 0.283 | 1.03 | 0.959 | 0.922 | 0.993 |
| LU99A | 0.282 | 0.312 | 0.251 | 0.258 | 0.288 | 0.567 | 0.556 | 0.571 | 0.494 | 0.491 | 0.182 | 0.201 | 0.154 | 0.141 | 0.193 | 0.565 | 0.542 | 0.491 | 0.6 |
| HCC-827 | 0.602 | 0.671 | 0.661 | 0.622 | 0.683 | 0.884 | 0.917 | 0.879 | 0.865 | 0.882 | 0.287 | 0.315 | 0.241 | 0.249 | 0.267 | 0.957 | 0.912 | 0.905 | 0.881 |
| LK-2 | 0.641 | 0.566 | 0.645 | 0.865 | 0.72 | 0.247 | 0.181 | 0.215 | 0.24 | 0.232 | 0.277 | 0.333 | 0.269 | 0.204 | 0.234 | 0.675 | 0.708 | 0.629 | 0.59 |
| HCC-366 | 0.421 | 0.366 | 0.359 | 0.321 | 0.354 | 0.505 | 0.644 | 0.59 | 0.501 | 0.534 | 0.183 | 0.179 | 0.195 | 0.172 | 0.182 | 0.67 | 0.501 | 0.583 | 0.677 |
| BEN | 1.14 | 1.19 | 1.15 | 0.919 | 0.966 | 0.962 | 1.11 | 0.758 | 0.714 | 0.885 | 0.779 | 0.821 | 0.605 | 0.753 | 0.773 | 0.914 | 0.97 | 0.876 | 0.898 |
| NCI-H23 | 0.294 | 0.275 | 0.269 | 0.309 | 0.313 | 0.477 | 0.572 | 0.444 | 0.48 | 0.417 | 0.647 | 0.642 | 0.58 | 0.579 | 0.611 | 0.507 | 0.663 | 0.698 | 0.679 |
| 201T | 0.855 | 0.861 | 0.838 | 0.801 | 0.827 | 1.01 | 1.03 | 1.04 | 1 | 1.03 | 0.321 | 0.317 | 0.343 | 0.333 | 0.311 | 1.04 | 1.09 | 0.963 | 1.03 |
| NCI-H460 | 0.363 | 0.411 | 0.474 | 0.403 | 0.495 | 0.895 | 1.07 | 0.814 | 0.786 | 0.884 | 0.0616 | 0.0628 | 0.063 | 0.0642 | 0.0565 | 1.02 | 0.765 | 0.653 | 0.754 |
| NCI-H661 | 0.713 | 0.755 | 0.836 | 0.771 | 0.758 | 1.03 | 0.984 | 1.08 | 0.992 | 0.989 | 0.903 | 0.937 | 0.938 | 0.713 | 0.926 | 0.672 | 0.605 | 0.433 | 0.601 |
| HCC-15 | 0.691 | 0.735 | 0.803 | 0.672 | 0.628 | 0.764 | 0.868 | 0.758 | 0.748 | 0.726 | 0.218 | 0.225 | 0.218 | 0.211 | 0.209 | 0.914 | 0.905 | 0.859 | 0.853 |
| LCLC-103H | 0.705 | 0.795 | 0.747 | 0.766 | 0.795 | 0.964 | 1.07 | 1.05 | 1.11 | 1.02 | 0.449 | 0.498 | 0.476 | 0.456 | 0.439 | 1.06 | 1.22 | 1.15 | 0.933 |
| NCI-H441 | 0.554 | 0.726 | 0.529 | 0.551 | 0.567 | 0.676 | 0.621 | 0.708 | 0.586 | 0.728 | 0.295 | 0.251 | 0.228 | 0.234 | 0.272 | 0.547 | 0.597 | 0.648 | 0.399 |
| EPLC-272H | 0.833 | 0.853 | 0.641 | 0.56 | 0.507 | 0.962 | 1.09 | 0.892 | 0.802 | 0.904 | 0.299 | 0.301 | 0.346 | 0.297 | 0.282 | 1.45 | 1.11 | 1.33 | 1.24 |
